In patent US9169254B2, “Spiroimidazolone derivative” (Chugai Seiyaku Kabushiki Kaisha, priority 2009, dated 2015):

Molecular target: T1, human PTH1 receptor (Homo sapiens, UniProt Q03431)
T1 sequence (Q03431 27-593): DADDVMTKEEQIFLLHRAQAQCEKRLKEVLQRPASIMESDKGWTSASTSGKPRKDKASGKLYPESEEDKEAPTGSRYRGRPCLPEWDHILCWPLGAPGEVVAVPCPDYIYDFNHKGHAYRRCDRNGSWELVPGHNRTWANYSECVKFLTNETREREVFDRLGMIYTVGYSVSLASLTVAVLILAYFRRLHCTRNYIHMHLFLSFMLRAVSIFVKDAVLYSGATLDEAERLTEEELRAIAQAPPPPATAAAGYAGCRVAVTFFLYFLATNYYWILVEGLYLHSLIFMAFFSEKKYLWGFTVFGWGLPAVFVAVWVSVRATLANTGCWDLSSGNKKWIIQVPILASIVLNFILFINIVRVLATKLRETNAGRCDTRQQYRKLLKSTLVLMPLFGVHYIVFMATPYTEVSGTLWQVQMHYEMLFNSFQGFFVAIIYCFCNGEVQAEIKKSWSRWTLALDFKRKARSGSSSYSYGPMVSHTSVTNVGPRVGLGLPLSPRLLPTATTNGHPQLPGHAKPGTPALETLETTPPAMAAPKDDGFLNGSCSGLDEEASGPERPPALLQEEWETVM
Assay: In vitro cAMP signal activity in HKRK-B7 cells (LLC-PK1 cells overexpressing the human PTH1 receptor)
Assay type: cell-based
Details: HKRK-B7 cells; compound at 1×10^−3 M; cAMP produced as percentage of that produced by hPTH(1-34) at 100 nM

cAMP production activity (%)	Structure (SMILES)
68	Cc1cc(S(=O)(=O)NCC(N)=O)ccc1CCS(=O)(=O)N1CCC2(CC1)N=C(c1cccc(OC(F)(F)F)c1)NC2=O [Compound 675, 2-(3-Methyl-4-{2-[4-oxo-2-(3-trifluoromethoxy-phenyl)-1,3,8-triaza-spiro[4.5]dec-1-ene-8-sulfonyl]-ethyl}-benzenesulfonylamino)-acetamide]
69	CCCCC1CCC(C2=NC3(CCN(S(=O)(=O)CCc4c(C)cc(N5C(=O)CNC5=O)cc4C)CC3)C(=O)N2)CC1 (stereo not drawn) [Compound 677, 3-(4-{2-[2-(4-Butyl-cyclohexyl)-4-oxo-1,3,8-triaza-spiro[4.5]dec-1-ene-8-sulfonyl]-ethyl}-3,5-dimethyl-phenyl)-imidazolidine-2,4-dione]
86	CC(=O)N(c1ccc(CCS(=O)(=O)N2CCC3(CC2)N=C(c2cccc(OC(F)(F)F)c2)NC3=O)c(C)c1)C1CCCC1 [Compound 678, N-Cyclopentyl-N-(3-methyl-4-{2-[4-oxo-2-(3-trifluoromethoxy-phenyl)-1,3,8-triaza-spiro[4.5]dec-1-ene-8-sulfonyl]-ethyl}-phenyl)-acetamide]
65	Cc1c(CCS(=O)(=O)N2CCC3(CC2)N=C(C2CCC(C)CC2)NC3=O)ccc(N(C)C(N)=O)c1C (stereo not drawn) [Compound 679, 1-(2,3-Dimethyl-4-{2-[2-(4-methyl-cyclohexyl)-4-oxo-1,3,8-triaza-spiro[4.5]dec-1-ene-8-sulfonyl]-ethyl}-phenyl)-1-methyl-urea]
101	Cc1cc(N(C)C(N)=O)c(C)cc1CCS(=O)(=O)N1CCC2(CC1)N=C(C1CCC(C)CC1)NC2=O (stereo not drawn) [Compound 680, 1-(2,5-dimethyl-4-{2-[2-(4-methyl-cyclohexyl)-4-oxo-1,3,8-triaza-spiro[4.5]dec-1-ene-8-sulfonyl]-ethyl}-phenyl)-1-methyl-urea]
55	Cc1cc(CN(CCO)C(=O)OC(C)(C)C)ccc1CCS(=O)(=O)N1CCC2(CC1)N=C(C1CCCCC1)NC2=O [Compound 681, {4-[2-(2-Cyclohexyl-4-oxo-1,3,8-triaza-spiro[4.5]dec-1-ene-8-sulfonyl)-ethyl]-3-methyl-benzyl}-(2-hydroxy-ethyl)-carbamic acid tert-butyl ester]
81	COc1cc(N(C)C(N)=O)cc(C)c1CCS(=O)(=O)N1CCC2(CC1)N=C(C1CCC(C)CC1)NC2=O (stereo not drawn) [Compound 682, 1-(3-Methoxy-5-methyl-4-{2-[2-(4-methyl-cyclohexyl)-4-oxo-1,3,8-triaza-spiro[4.5]dec-1-ene-8-sulfonyl]-ethyl}-phenyl)-1-methyl-urea]
74	Cc1cc(N(C)C(N)=O)cc(Cl)c1CCS(=O)(=O)N1CCC2(CC1)N=C(C1CCC(C)CC1)NC2=O (stereo not drawn) [Compound 683, 1-(3-Chloro-5-methyl-4-{2-[2-(4-methyl-cyclohexyl)-4-oxo-1,3,8-triaza-spiro[4.5]dec-1-ene-8-sulfonyl]-ethyl}-phenyl)-1-methyl-urea]
101	COc1c(N(C)C(N)=O)cc(C)c(CCS(=O)(=O)N2CCC3(CC2)N=C([C@H]2CC[C@H](C)CC2)NC3=O)c1C [Compound 684, 1-(2-methoxy-3,5-dimethyl-4-{2-[2-(4-methyl-cyclohexyl)-4-oxo-1,3,8-triaza-spiro[4.5]dec-1-ene-8-sulfonyl]-ethyl}-phenyl)-1-methyl-urea]
46	Cc1cc2[nH]c(=O)[nH]c(=O)c2c(C)c1CCS(=O)(=O)N1CCC2(CC1)N=C(C1CCC(C)CC1)NC2=O (stereo not drawn) [Compound 685, 5,7-Dimethyl-6-{2-[2-(4-methyl-cyclohexyl)-4-oxo-1,3,8-triaza-spiro[4.5]dec-1-ene-8-sulfonyl]-ethyl}-1H-quinazoline-2,4-dione]
22	NCCn1ccc2c(/C=C/S(=O)(=O)N3CCC4(CC3)N=C(C3CCCCC3)NC4=O)cccc21 [Compound 686, 8-{(E)-2-[1-(2-Amino-ethyl)-1H-indol-4-yl]-ethenesulfonyl}-2-cyclohexyl-1,3,8-triaza-spiro[4.5]dec-1-en-4-one]
25	NCc1ccc(/C=C/S(=O)(=O)N2CCC3(CC2)N=C(C2CCCCC2)NC3=O)cc1 [Compound 687, 8-[(E)-2-(4-aminomethyl-phenyl)-ethenesulfonyl]-2-cyclohexyl-1,3,8-triaza-spiro[4.5]dec-1-en-4-one]
55	Cc1cc(NC(=O)[C@@H](N)CO)ccc1/C=C/S(=O)(=O)N1CCC2(CC1)N=C(c1cccc(C(F)(F)F)c1)NC2=O [Compound 688, (S)-2-Amino-3-hydroxy-N-(3-methyl-4-{(E)-2-[4-oxo-2-(3-trifluoromethyl-phenyl)-1,3,8-triaza-spiro[4.5]dec-1-ene-8-sulfonyl]-vinyl}-phenyl)-propionamide]
27	Cc1cc(N(C2CCNCC2)S(C)(=O)=O)cc(C)c1/C=C/S(=O)(=O)N1CCC2(CC1)N=C(c1cccc(OC(F)(F)F)c1)NC2=O [Compound 689, N-(3,5-Dimethyl-4-{(E)-2-[4-oxo-2-(3-trifluoromethoxy-phenyl)-1,3,8-triaza-spiro[4.5]dec-1-ene-8-sulfonyl]-vinyl}-phenyl)-N-piperidin-4-yl-methanesulfonamide]
86	CNc1cc(C)c(/C=C/S(=O)(=O)N2CCC3(CC2)N=C(CCCCCCCCC(F)(F)F)NC3=O)c(C)c1 [Compound 690, 8-[(E)-2-(2,6-Dimethyl-4-methylamino-phenyl)-ethenesulfonyl]-2-(9,9,9-trifluoro-nonyl)-1,3,8-triaza-spiro[4.5]dec-1-en-4-one]
69	CNc1cc(C)c(/C=C/S(=O)(=O)N2CCC3(CC2)N=C(CCCCCCCC(F)(F)C(F)(F)F)NC3=O)c(C)c1 [Compound 691, 8-[(E)-2-(2,6-Dimethyl-4-methylamino-phenyl)-ethenesulfonyl]-2-(8,8,9,9,9-pentafluoro-nonyl)-1,3,8-triaza-spiro[4.5]dec-1-en-4-one]
101	CCCCCCCCCC1=NC2(CCN(S(=O)(=O)/C=C/c3c(C)cc(N(C)C(N)=O)cc3C)CC2)C(=O)N1 [Compound 692, 1-{3,5-Dimethyl-4-[(E)-2-(2-nonyl-4-oxo-1,3,8-triaza-spiro[4.5]dec-1-ene-8-sulfonyl)-vinyl]-phenyl}-1-methyl-urea]
103	COc1c(N(C)C(N)=O)cc(C)c(/C=C/S(=O)(=O)N2CCC3(CC2)N=C([C@H]2CC[C@H](C)CC2)NC3=O)c1C [Compound 693, 1-(2-Methoxy-3,5-dimethyl-4-{(E)-2-[2-(4-methyl-cyclohexyl)-4-oxo-1,3,8-triaza-spiro[4.5]dec-1-ene-8-sulfonyl]-vinyl}-phenyl)-1-methyl-urea]
77	Cc1cc(N(CCF)C(N)=O)cc(C)c1/C=C/S(=O)(=O)N1CCC2(CC1)N=C(C1CCC(CCC(F)(F)F)CC1)NC2=O (stereo not drawn) [Compound 694, 1-[3,5-Dimethyl-4-((E)-2-{4-oxo-2-[4-(3,3,3-trifluoro-propyl)-cyclohexyl]-1,3,8-triaza-spiro[4.5]dec-1-ene-8-sulfonyl}-vinyl)-phenyl]-1-(2-fluoro-ethyl)-urea]
78	Cc1cc(N(C)C(N)=O)cc(Cl)c1/C=C/S(=O)(=O)N1CCC2(CC1)N=C(C1CCC(C)CC1)NC2=O (stereo not drawn) [Compound 695, 1-(3-Chloro-5-methyl-4-{(E)-2-[2-(4-methyl-cyclohexyl)-4-oxo-1,3,8-triaza-spiro[4.5]dec-1-ene-8-sulfonyl]-vinyl}-phenyl)-1-methyl-urea]
132	Cc1cc(N(C)C(N)=O)cc(C)c1CCS(=O)(=O)N1CCC2(CC1)N=C(C1CCC(CCC(F)(F)F)CC1)NC2=O (stereo not drawn) [Compound 696, 1-[3,5-Dimethyl-4-(2-{4-oxo-2-[4-(3,3,3-trifluoro-propyl)-cyclohexyl]-1,3,8-triaza-spiro[4.5]dec-1-ene-8-sulfonyl}-ethyl)-phenyl]-1-methyl-urea]
60	Cc1cc(OC[C@H](O)CO)cc(C)c1/C=C/S(=O)(=O)N1CCC2(CC1)N=C(C1CCC(CCC(F)(F)F)CC1)NC2=O (stereo partly drawn) [Compound 697, 8-{(E)-2-[4-((R)-2,3-Dihydroxy-propoxy)-2,6-dimethyl-phenyl]-ethenesulfonyl}-2-[4-(3,3,3-trifluoro-propyl)-cyclohexyl]-1,3,8-triaza-spiro[4.5]dec-1-en-4-one]
62	Cc1cc(OCCOC[C@H](O)CO)cc(C)c1/C=C/S(=O)(=O)N1CCC2(CC1)N=C(C1CCC(CCC(F)(F)F)CC1)NC2=O (stereo partly drawn) [Compound 698, 8-((E)-2-{4-[2-((R)-2,3-dihydroxy-propoxy)-ethoxy]-2,6-dimethyl-phenyl}-ethenesulfonyl)-2-[4-(3,3,3-trifluoro-propyl)-cyclohexyl]-1,3,8-triaza-spiro[4.5]dec-1-en-4-one]

Structure (SMILES)	cAMP production activity (%)
Cc1cc(OCCC(O)CO)cc(C)c1CCS(=O)(=O)N1CCC2(CC1)N=C(c1cccc(OC(F)(F)F)c1)NC2=O (stereo not drawn) [Compound 676, 8-{2-[4-(3,4-dihydroxy-butoxy)-2,6-dimethyl-phenyl]-ethanesulfonyl}-2-(3-trifluoromethoxy-phenyl)-1,3,8-triaza-spiro[4.5]dec-1-en-4-one]	69
